Molecular target: T1, A®1-42 peptide (Homo sapiens, UniProt P05067)
T1 construct: A®1-42 lyophilized powder (Bachem) was reconstituted in hexafluoroisopropanol (HFIP) to 1 mM; purchased Bachem
Assay: Thioflavin T spectrofluorescence assay (ThT-assay), inhibition of A®1-42 aggregation
Type: biochemical
Conditions: 330 µM small molecule, 33 µM A®1-42 (molar ratio 10:1), 10 µM ThT, 12.8% DMSO in PBS, 24 hrs at 37° C.; mean +/- SD of two independent experiments
Method: The capacity of the compounds of the invention to inhibit the aggregation of A®1-42 peptide was determined by using the thioflavin T spectrofluorescence assay (ThT-assay) as described below.
A®1-42 lyophilized powder (Bachem) was reconstituted in hexafluoroisopropanol (HFIP) to 1 mM. The peptide solution was sonicated for 15 min at room temperature, agitated overnight, and aliquots were placed into non-siliconized microcentrifuge tubes. The HFIP was then evaporated under a stream of argon. The resulting peptide film was dried under vacuum for 10 min, tightly sealed and stored at −80° C. until used.
An A®1-42 peptide film was dissolved in DMSO to reach 400 ? M. An assay solution in PBS was prepared in non-siliconized incubation tubes to reach the following concentrations: 330 ? M small molecule, 33 ? M A®1-42, 10 ? M thioflavin T (ThT), and 12.8% DMSO. Therefore, the final molar ratio of small molecule to A®1-42 was 10:1. A positive control without a small molecule was prepared to measure maximum RFU. A negative control without A®1-42 was prepared for each small molecule. The 3-amino-pyrazole trimer (Rzepecki et. al. Synthesis 2003, 1815) was tested as a reference compound in all assays to ascertain reproducibility between independent experiments. The solutions were then incubated for 24 hrs at 37° C., and the spectrofluorescence (relative fluorescence units; RFU) read in six replicates in black 384-well assay plates (Perkin-Elmer) on a Perkin-Elmer FluoroCount spectrofluorometer. Inhibition of aggregation is expressed as mean % inhibition±1 standard deviation (SD) according to the following equation: […]

T1 sequence (P05067 672-713): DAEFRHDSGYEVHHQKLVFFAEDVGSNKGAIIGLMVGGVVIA

| SMILES | inhibition at 330 µM |
| --- | --- |
| Fc1cc(F)cc(Nc2cncc(N3CCNCC3)c2)c1 [Example 6] | 62.5 ± 7.4% |
| FC(F)(F)c1ccc(Nc2cncc(N3CCOCC3)c2)cn1 [Example 3] | 36.9 ± 17.2% |
| c1cc2c(C3CCNCC3)c[nH]c2cc1Nc1cncc(N2CCOCC2)c1 [Example 4] | 53.3 ± 7.6% |
| FC(F)(F)c1ccc(Nc2cncc(NCC3CCOCC3)c2)cn1 [Example 19] | 40.2 ± 6.3% |
| c1ncc(N2CCOCC2)cc1N1CCOCC1 [Example 2] | 15.7 ± 6.1% |
| c1ncc(NCC2CCNCC2)cc1NCC1CCNCC1 [Example 8] | 69.5 ± 1.4% |
| FC(F)(F)c1ccc(Nc2cncc(NCC3CCOCC3)c2)cc1 [Example 20] | 51.7 ± 0.3% |
| c1ncc(N2CCNCC2)cc1N1CCNCC1 [Example 5] | 60.1 ± 7.8% |
| FC(F)(F)c1ccc(Nc2cncc(N3CCNCC3)c2)cn1 [Example 7] | 28.3 ± 3.2% |

Now from value to compound:

| inhibition at 330 µM | SMILES |
| --- | --- |
| 95.4 ± 0.8% | c1ncc(Nc2ccc3c(C4CCNCC4)c[nH]c3c2)cc1NCC1CCNCC1 [Example 12] |
| 96.5 ± 1.4% | Cn1c2c(c3ccc(Nc4cncc(NCC5(F)CCNCC5)c4)nc31)CCCC2 [Example 17] |
| 29.5 ± 0.1% | CN1CCC(CNc2cncc(Nc3ccc(C(F)(F)F)nc3)c2)CC1 [Example 18] |
| 62.7 ± 2.1% | c1cc2ccc(Nc3cncc(NCC4CCNCC4)c3)nc2[nH]1 [Example 11] |
| 86.2 ± 4.7% | FC1(CNc2cncc(Nc3ccc(C(F)(F)F)nc3)c2)CCNCC1 [Example 14] |
| 38 ± 0.6% | FC(F)(F)c1ccc(Nc2cncc(NCC3CCNCC3)c2)cn1 [Example 1] |
| 100 ± 4.4% | c1ncc(Nc2ccc3c4c([nH]c3n2)CCCC4)cc1NCC1CCNCC1 [Example 13] |
| 55 ± 7.4% | Fc1cc(F)cc(Nc2cncc(NCC3CCNCC3)c2)c1 [Example 9] |
| 95.7 ± 0.4% | FC1(CNc2cncc(Nc3ccc4c5c([nH]c4n3)CCCC5)c2)CCNCC1 [Example 15] |
| 62.9 ± 8.2% | FC1(CNc2cncc(Nc3ccc(C(F)(F)F)cc3)c2)CCNCC1 [Example 16] |
| 73.9 ± 4.7% | FC(F)(F)c1ccc(Nc2cncc(NCC3CCNCC3)c2)cc1 [Example 10] |

Reference: patent publication US20110256064A1, “Novel Compounds for the Treatment of Diseases Associated with Amyloid or Amyloid-like Proteins” (AC Immune, S.A., priority 2010, published 2011)
